Source: patent publication US20220338470A1, “AGRICULTURAL COMPOSITIONS FOR IMPROVED CROP PRODUCTIVITY AND ENHANCED PHENOTYPES” (Spogen Biotech Inc., priority 2018, published 2022)
Structures can show the parent of a compound that is named as a salt.

Assays:
Format in all cases: in vivo
[1] = test system: soybean (Asgrow AG4034); assay: R2 soybean yield, trehalose, potassium acetate and SILWET L-77; conditions: for Avg. Yield (Bu/Ac): foliar at R2 soybean AG4034, three locations; for Avg. Δ in Yield (Bu/Ac): vs base seed treatment control
Text: In another experiment, large acre yield replicated trials of soybean (variety: Asgrow AG4034) were planted from seed treated with a base seed treatment package containing […]® fungicide and PONCHO®/VOTIVO® 500 in three locations in the US Midwest (IL). […] Trehalose is a non-reducing carbohydrate resistant to acid hydrolysis and stable in solution under high temperatures and acidic conditions. Trehalose was applied separately and in combination with a non-blended organosilicone surfactant ([…]-77) as a foliar spray application to soybean plants. Final concentrations at application were as follows: […]

[2] = test system: corn (DKC 58-89, DKC 52-61, DKC 65-81); assay: V5 corn yield, choline chloride, calcium chloride and PLURONIC F-68; conditions: for Avg. Yield (Bu/Ac) Trial 1 / Avg. Yield (Bu/Ac) Trial 2: foliar at V5 corn; for Avg. Yield (Bu/Ac) Trial 1: three hybrids (* two hybrids only), trial 1, one location; for Avg. Yield (Bu/Ac) Trial 2: three hybrids; for Avg. Δ in Yield (Bu/Ac): vs base seed treatment control, average of trials 1 and 2; for yield increase compared to base seed treatment control plants: foliar at V5
Procedure: In a separate experiment, large acre field trials were conducted using one and two location trials in the US Midwest (IL) planted with three different corn hybrids (DEKALB: DKC 58-89; DKC 52-61; DKC 65-81). Seed from each of the corn hybrids was coated with a seed treatment of EVERGOL® fungicide combined with PONCHO®/VOTIVO® 500. Foliar treatments comprising a non-ionic polyoxyethylene-polyoxypropylene block copolymer surfactant (PLURONIC F-68, an anti-respirant), a quaternary ammonium salt (choline chloride) and/or a di-hydrated salt (calcium chloride) were applied to corn plants at the V5 stage of development. The foliar treatments were applied using the final concentrations and application use rates as described in Table 42. Choline chloride was selected for its osmolyte-like properties. Choline chloride is a precursor of acetylcholine and is involved in the regulation of water resorption in plants. Choline chloride was tested as a foliar application treatment individually and in combination an anti-respirant (PLURONIC F 68 surfactant). Average yield in Bu/Ac was reported for two trials. Trial 1 was conducted at one location and trial 2 was conducted at two locations in the US Midwest (IL). Yield (Bu/Ac) is reported as the average yield across location(s) and as the average for all three hybrids except where indicated in Table 42 and as the average change in yield (Bu/Ac) compared to the yield from the seed treatment control plants. The Base Seed Treatment control plants received only the EVERGOL® fungicide+PONCHO®/VOTIVO® 500 seed treatment and not any foliar treatments.

[3] = test system: corn (Beck's hybrid 5828 YH); assay: Soil drench of corn seedlings under drought, growth during V2-V3 transition; conditions: for % Δ in Plant Height Compared to Control: 11 DAP to 14 DAP, vs water-only control; for change in plant height during V2 to V3 transition compared to water-only control: soil drench at planting and day 3, 11 to 14 days after planting; for Plant Growth during the transition of V2-V3 stage (11 DAP to 14 DAP): soil drench, each component 438.5 mL/hectare, droughted conditions
Text: The anti-respirant also functioned as an infiltration surfactant (above-soil surfactant or penetrant) and the anti-desiccant functioned as a humectant. […] A combined treatment with betaine-HCl (osmoprotectant), an infiltration surfactant (anti-respirant) and a humectant (anti-desiccant) was also compared with other drench treatments and a water-only control. Glycerol, a polyol compound that has three hydroxyl groups that are responsible for its solubility in water and its hydroscopic nature, was selected as a viscous humectant to combine with the betaine-HCl osmoprotectant and the infiltration surfactant. This triple treatment combination was selected based on its mode of action properties in soil drench applications that promote the retention and management of moisture by attracting moisture and condensing it for contact to the germinating seed and/or growing plant. The treatment combination was provided as a soil drench at the time of planting and again at emergence to promote rapid growth at the early V stages of development, enhance early vigor, provide for a robust stand establishment, and protect against the effects of drought during early seedling establishment. The betaine-HCl osmoprotectant was provided at a final application concentration of 83.49 mM. The infiltration surfactant was diluted in water at the recommended application use rate using a ratio of 1:1600 (surfactant to water) (52.9 μM). The humectant was provided at a final application treatment of 1% diluted in water (136.8 mM). The individual and combined treatments were provided using the application use rates (Fl. oz/Ac) as specified in Tables 54 and 55. […] In Table 55, the application use rates for all three components were the same. […] Seeds were planted at a depth of 2.54 cm, with two seeds per pot. After planting, seeds were supplied with 50 mL of the each of the treatments (as described in Tables 54 and 55) at room temperature and added to the soil in each pot as a soil drench provided at an equivalent application use rate as specified. […] After application of the second drench, the plants were left un-watered to induce and simulate droughted conditions that may occur during early seedling establishment. […] At 11 days after planting, plant height was determined for each plant in the various treatments. Corn plants provided with treatments as described in Table 55 received an additional 50 mL of water at 11 days after planting.

[4] = test system: corn (Beck's hybrid 5828 YH); assay: Corn growth rate under droughted conditions, alternative osmoprotectants; conditions: two weeks un-watered; Anti-Respirant Control A 29.0%
Text: Stachydrine was selected as an osmoprotectant that acts as a negative control due to its functional role in the induction of nodulation (Phillips, D. A., Joseph, C. M., Maxwell, C. A., “Trigonelle and stachydrine released from alfalfa seeds activate NodD2 protein in Rhizobium meliloti” (1992) Plant Physiology 99: 1526-1531). Stachydrine acts through a different mode of action as compared to the betaine-HCl osmoprotectant. Plant growth rates under droughted conditions were compared in corn treated with foliar applications comprising betaine-HCl, strachydrine or myo-inositol (see Table 37). Corn (Beck's hybrid 5828 YH) plants were planted in an environmentally controlled growth facility and grown using the conditions described in the first paragraph of this example. At 1.5 weeks, the plants were provided with another 50 mL of water per pot and plant height was measured for each plant. Plants were then segregated to prevent any cross contamination between the foliar treatments. […] Relative percent growth rate under droughted conditions was calculated for each plant in each treatment replicate using the percent (%) growth rate equation (as provided above in this Example). […]

Which “Avg. Yield (Bu/Ac)” value [1] does the source give for CC(=O)[O-].[K+] [Potassium Acetate] here?
Its value is 67.2 Bu/Ac.

And the “Avg. Δ in Yield (Bu/Ac)” value ([1]; three locations)?
The value was “+0.35 Bu/Ac”.

For O.O.[Ca+2].[Cl-].[Cl-] [Calcium Chloride (dihydrate)], which “Avg. Yield (Bu/Ac) Trial 1” value [2] is on record?
The value was 201.4 Bu/Ac.

What about the “Avg. Yield (Bu/Ac) Trial 2” value [2] of the same compound?
Its value is 169.6 Bu/Ac.

What about the “Avg. Δ in Yield (Bu/Ac)” value [2] of the same compound?
The value was “+11.8 Bu/Ac”.

With [Ca+2].[Cl-].[Cl-] [calcium chloride] as the compound, how does the “yield increase compared to base seed treatment control plants” value [2] read?
The value was “+11.8 Bu/Ac”.

Which results are given for OC[C@H]1O[C@H](O[C@H]2O[C@H](CO)[C@@H](O)[C@H](O)[C@H]2O)[C@H](O)[C@@H](O)[C@@H]1O [trehalose]?
average change in soybean yield compared to seed treatment-only control ([1]; R2, trehalose 6.4 Fl. oz/Ac, SILWET L-77 3.2 Fl. oz/Ac, three locations): +1.49 Bu/Ac; Avg. Yield (Bu/Ac) [1]: 68.3 Bu/Ac; Avg. Δ in Yield (Bu/Ac) ([1]; three locations): +1.49 Bu/Ac

With C[N+](C)(C)CCO.[Cl-] [choline chloride] as the compound, how does the “yield increase compared to base seed treatment control plants” value [2] read?
The value was “+8.5 Bu/Ac”.

And the “Avg. Yield (Bu/Ac) Trial 1” value [2]?
The value was 207.3* Bu/Ac.

What about the “Avg. Yield (Bu/Ac) Trial 2” value [2] of the same compound?
Its value is 157.2 Bu/Ac.

And the “Avg. Δ in Yield (Bu/Ac)” value [2]?
The value was “+8.5 Bu/Ac”.

Which “% Δ in Plant Height Compared to Control” value [3] does the source give for C[N+](C)(C)CC(=O)O [osmoprotectant-only control, betaine-HCl] here?
Its value is “+8%”.

What about the “change in plant height during V2 to V3 transition compared to water-only control” value [3] of the same compound?
Its value is “+8%”.

And the “Plant Growth during the transition of V2-V3 stage (11 DAP to 14 DAP)” value [3]?
The value was 3.11 cm.

With OCC(O)CO [humectant-only control, glycerol] as the compound, how does the “% Δ in Plant Height Compared to Control” value [3] read?
The value was “+3%”.

And the “change in plant height during V2 to V3 transition compared to water-only control” value [3]?
Its value is “+3%”.

And the “Plant Growth during the transition of V2-V3 stage (11 DAP to 14 DAP)” value [3]?
The value was 2.98 cm.

Which “Relative Growth Rate (%) under Droughted Conditions” value [4] does the source give for O[C@H]1[C@H](O)[C@@H](O)[C@H](O)[C@@H](O)[C@H]1O [Myo-inositol, myo-inositol] here?
The value was 31.1%.
